The text below walks through data of patent US6420338B1, “Inhibition of the Src kinase family pathway as a method of treating HBV infection and hepatocellular carcinoma” (New York University Medical Center, priority 1997, dated 2002).

The test system of the assay is c-Src. As to the kind of experiment: c-Src immunoprecipitation in vitro kinase assay (auto-phosphorylation and enolase trans-phosphorylation). The assay is classed as cell-based. As to conditions: serum-starved NIH 3T3 cells; PDGF 100 ng/ml for 5 min. The procedure:
FIGS. 1A-1C Serum-starved NIH 3T3 cells were infected with AdCMV-X or -Xo viruses, c-Src or c-Fyn was immunoprecipitated, the pellet washed and assayed by incubation with the substrate enolase and [γ-^32P] ATP. Products were resolved by SDS-10%-PAGE then visualized and quantitiated by PhosphorImage analysis. c-Src (FIG. 1A) or c-Fyn (FIG. 1B) were immunoprecipitated 8 h p.i. from NIH 3T3 cell lysates expressing HBx or HBxo. Where indicated, cells were incubated with PDGF (100 ng/ml) for 5 min. (FIG. 1C) Transfected HBx activates c-Src in the cytoplasm. Chang cells were transfected with 10 μg pCMV-Xo (HBxo), PCMV-X (wt HBx) or pCMV-XNLS (nuclear HBx) expression plasmids, serum-starved for 24 h, c-Src immunoprecipitated and subjected to an in vitro trans-phosphorylation assay, then analyzed as above. […]
Src kinase assays were carried out essentially as described (Kypta et al., 1990, Cell 62:481-492). […] Src and Fyn kinase activity were measured by immunoprecipitating either Src (1 μg anti-Src antibodies) or Fyn (1 μg/ml anti-Fyn antibodies) from equal amounts of cell lysate. […] For the reactions containing the Src peptide substrate, TCA was added to a final concentration of 20%, an aliquot was spotted onto phosphocellulose paper (UBI), the filters were washed 3×5 minutes in 0.75% phosphoric acid and once in acetone, dried and analyzed by scintillation counting. […]

PDGF: the “activation of c-Src (auto- and trans-phosphorylation)” value is on record as 3-4 fold.
